We go through 23 molecules from patent US20240109917A1 (ACTELION PHARMACEUTICALS LTD, priority 2020, published 2024).

SMILES strings stand for the structures. Read-outs that look alike come from different tables or passages of the source.

The target in assay [1] is His6-TEV-PDGFRβ (557-1016) (Homo sapiens (Human), UniProt P09619). As to the kind of experiment: PDGFRβ HTRF Assay. Type of assay: biochemical. As to conditions: read-out: PDGFR HTRF IC50. The procedure, abridged: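 Human PDGFRβ (557-1016) pre-incubated with compound for 30 min at RT in pH 7.5 HEPES/MgCl2/EGTA/Brij-35/DTT buffer. Reaction started with ATP and TK-biotin peptide, run 3 h at RT, then quenched with EDTA-containing Eu-cryptate antibody/streptavidin-XL665. HTRF 665/620 nm ratio read after 60 min; percent inhibition relative to DMSO and 10 μM imatinib controls.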

The target in assay [2] is PDGFRβ (Rattus norvegicus (Rat), UniProt Q05030). Description: PDGFRβ Cellular Assay (PDGFRb P-Y751 HTRF in A10 cells stimulated with PDGF-BB). Type of assay: cell-based. The procedure, abridged:
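Rat A10 cells, plated overnight, were treated with compound for 3 hours, then stimulated with PDGF-BB (working stock 100 ng/mL in 10% FBS medium). After lysis, PDGFRβ P-Y751 was detected by HTRF.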

Chain of PDGFRβ (Q05030 32-1097): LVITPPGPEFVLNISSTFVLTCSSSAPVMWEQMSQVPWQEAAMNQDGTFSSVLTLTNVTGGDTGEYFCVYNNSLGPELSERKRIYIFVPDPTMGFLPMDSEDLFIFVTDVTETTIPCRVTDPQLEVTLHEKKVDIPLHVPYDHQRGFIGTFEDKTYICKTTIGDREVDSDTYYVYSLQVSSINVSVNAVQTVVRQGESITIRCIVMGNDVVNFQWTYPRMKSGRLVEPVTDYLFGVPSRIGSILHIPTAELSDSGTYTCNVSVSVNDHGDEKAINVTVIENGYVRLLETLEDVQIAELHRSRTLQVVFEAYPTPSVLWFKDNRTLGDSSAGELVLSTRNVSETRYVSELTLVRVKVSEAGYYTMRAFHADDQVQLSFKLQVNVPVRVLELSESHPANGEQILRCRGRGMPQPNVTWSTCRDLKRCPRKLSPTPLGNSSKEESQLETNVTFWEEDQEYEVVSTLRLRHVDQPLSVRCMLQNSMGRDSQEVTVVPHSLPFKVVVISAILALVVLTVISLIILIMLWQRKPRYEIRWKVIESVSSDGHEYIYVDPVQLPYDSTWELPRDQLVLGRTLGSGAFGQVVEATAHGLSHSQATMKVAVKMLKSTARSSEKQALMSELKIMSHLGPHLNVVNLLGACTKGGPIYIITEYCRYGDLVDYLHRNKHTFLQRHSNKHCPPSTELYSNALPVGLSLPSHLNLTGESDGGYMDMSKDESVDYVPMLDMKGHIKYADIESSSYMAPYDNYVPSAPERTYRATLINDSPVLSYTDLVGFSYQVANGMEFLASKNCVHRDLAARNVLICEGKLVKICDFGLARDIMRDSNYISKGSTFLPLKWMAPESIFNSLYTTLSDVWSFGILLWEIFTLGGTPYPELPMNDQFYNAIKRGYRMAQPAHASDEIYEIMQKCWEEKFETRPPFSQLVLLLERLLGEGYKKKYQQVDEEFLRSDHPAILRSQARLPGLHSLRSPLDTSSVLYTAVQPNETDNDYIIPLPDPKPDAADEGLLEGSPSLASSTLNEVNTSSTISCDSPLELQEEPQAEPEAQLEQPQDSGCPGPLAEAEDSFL
Chain of His6-TEV-PDGFRβ (557-1016) (P09619 557-1016): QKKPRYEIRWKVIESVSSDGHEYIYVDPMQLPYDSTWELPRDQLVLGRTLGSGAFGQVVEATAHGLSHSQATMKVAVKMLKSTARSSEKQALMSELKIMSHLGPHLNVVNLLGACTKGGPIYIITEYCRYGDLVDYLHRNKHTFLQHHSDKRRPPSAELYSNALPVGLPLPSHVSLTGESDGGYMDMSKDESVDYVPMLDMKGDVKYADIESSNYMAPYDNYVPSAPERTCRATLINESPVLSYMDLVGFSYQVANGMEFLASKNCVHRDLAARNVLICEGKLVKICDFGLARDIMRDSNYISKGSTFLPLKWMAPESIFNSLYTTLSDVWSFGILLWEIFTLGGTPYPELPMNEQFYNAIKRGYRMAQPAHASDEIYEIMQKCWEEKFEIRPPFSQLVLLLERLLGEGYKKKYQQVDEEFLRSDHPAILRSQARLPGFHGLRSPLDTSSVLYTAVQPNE

Regarding `Cc1ncc(NC(=O)CN2CC(C)(C)C2)cc1NC(=O)c1cnn2cc(-c3cnn(CC(N)=O)c3)sc12` [Example 267, 2-(1-(2-amino-2-oxoethyl)-1H-pyrazol-4-yl)-N-(5-(2-(3,3-dimethylazetidin-1-yl)acetamido)-2-methylpyridin-3-yl)pyrazolo[5,1-b]thiazole-7-carboxamide], the IC50 is 0.9 nM in assay [1] and 701 nM in assay [2] (read-out: PDGFR Cellular IC50).
The like results for `Cc1ncc(NC(=O)CN2CC(C)(C)C2)cc1NC(=O)c1cnn2cc(-c3cnn(CC(F)(F)F)c3)sc12` [Example 268, N-(5-(2-(3,3-dimethylazetidin-1-yl)acetamido)-2-methylpyridin-3-yl)-2-(1-(2,2,2-trifluoroethyl)-1H-pyrazol-4-yl)pyrazolo[5,1-b]thiazole-7-carboxamide] were, in that order, 0.6 nM and 11.6 nM.
As for `Cc1ncc(NC(=O)CN2CC(C)(C)C2)cc1NC(=O)c1cnn2cc(-c3cnn(C(F)(F)F)c3)sc12` [Example 269, N-(5-(2-(3,3-dimethylazetidin-1-yl)acetamido)-2-methylpyridin-3-yl)-2-(1-(trifluoromethyl)-1H-pyrazol-4-yl)pyrazolo[5,1-b]thiazole-7-carboxamide], the IC50 in assay [1] came to 1.8 nM; in assay [2] (read-out: PDGFR Cellular IC50), 17.5 nM.
In the case of `Cc1ncc(NC(=O)CN2CC(C)(C)C2)cc1NC(=O)c1cnn2cc(-c3cnn(CC4CC4)c3)sc12` [Example 270, 2-(1-(cyclopropylmethyl)-1H-pyrazol-4-yl)-N-(5-(2-(3,3-dimethylazetidin-1-yl)acetamido)-2-methylpyridin-3-yl)pyrazolo[5,1-b]thiazole-7-carboxamide], the IC50 in assay [1] is 0.4 nM; in assay [2] (read-out: PDGFR Cellular IC50), 4.8 nM.
The like results for `Cc1ncc(NC(=O)CN2CC(C)(C)C2)cc1NC(=O)c1cnn2cc(-c3cn[nH]c3)sc12` [Example 271, N-(5-(2-(3,3-dimethylazetidin-1-yl)acetamido)-2-methylpyridin-3-yl)-2-(1H-pyrazol-4-yl)pyrazolo[5,1-b]thiazole-7-carboxamide] were, in that order, 0.2 nM and 10.3 nM.
As to `Cc1ncc(NC(=O)CN2CC(C)(C)C2)cc1NC(=O)c1cnn2cc(-c3ccc(C4(O)COC4)cc3)sc12` [Example 272, N-(5-(2-(3,3-dimethylazetidin-1-yl)acetamido)-2-methylpyridin-3-yl)-2-(4-(3-hydroxyoxetan-3-yl)phenyl)pyrazolo[5,1-b]thiazole-7-carboxamide], the figures for the IC50 in assay [1] and in assay [2] (read-out: PDGFR Cellular IC50) were 0.2 nM and 5.6 nM, respectively.
Take `CC(=O)Nc1cc(-c2cn3ncc(C(=O)Nc4cc(NC(=O)CN5CC(C)(C)C5)cnc4C)c3s2)ccn1` [Example 273, 2-(2-acetamidopyridin-4-yl)-N-(5-(2-(3,3-dimethylazetidin-1-yl)acetamido)-2-methylpyridin-3-yl)pyrazolo[5,1-b]thiazole-7-carboxamide]: the results for the half-inhibitory concentration (IC50) in assay [1] and in assay [2] (read-out: PDGFR Cellular IC50) were 0.2 nM and 13.7 nM, respectively.
Taken in the same sequence, the figures for `CNC(=O)c1cc(-c2cn3ncc(C(=O)Nc4cc(NC(=O)CN5CC(C)(C)C5)cnc4C)c3s2)ccn1` [Example 274, N-(5-(2-(3,3-dimethylazetidin-1-yl)acetamido)-2-methylpyridin-3-yl)-2-(2-(methylcarbamoyl)pyridin-4-yl)pyrazolo[5,1-b]thiazole-7-carboxamide] were 1 nM and 51.8 nM.
As for `Cc1ncc(NC(=O)CN2CC(C)(C)C2)cc1NC(=O)c1cnn2cc(-c3ccn(S(C)(=O)=O)c3)sc12` [Example 275, N-(5-(2-(3,3-dimethylazetidin-1-yl)acetamido)-2-methylpyridin-3-yl)-2-(1-(methylsulfonyl)-1H-pyrrol-3-yl)pyrazolo[5,1-b]thiazole-7-carboxamide], the IC50 in assay [1] worked out at 0.2 nM; in assay [2] (PDGFR Cellular IC50), 7.6 nM.
In the case of `CC(=O)Nc1cncc(-c2cn3ncc(C(=O)Nc4cc(NC(=O)CN5CC(C)(C)C5)cnc4C)c3s2)c1` [Example 277, 2-(5-acetamidopyridin-3-yl)-N-(5-(2-(3,3-dimethylazetidin-1-yl)acetamido)-2-methylpyridin-3-yl)pyrazolo[5,1-b]thiazole-7-carboxamide], the IC50 in assay [1] worked out at 0.4 nM; in assay [2] (read-out: PDGFR Cellular IC50) it was 142 nM.
In the case of `Cc1ncc(NC(=O)CN2CC(C)(C)C2)cc1NC(=O)c1cnn2cc(-c3ccc(CO)s3)sc12` [Example 278, N-(5-(2-(3,3-dimethylazetidin-1-yl)acetamido)-2-methylpyridin-3-yl)-2-(5-(hydroxymethyl)thiophen-2-yl)pyrazolo[5,1-b]thiazole-7-carboxamide], the IC50 stood at 0.2 nM in assay [1] and 1.5 nM in assay [2] (read-out: PDGFR Cellular IC50).
For the molecule `CNC(=O)Cn1cc(-c2cn3ncc(C(=O)Nc4cc(NC(=O)CN5CC(C)(C)C5)cnc4C)c3s2)cn1` [Example 279, N-(5-(2-(3,3-dimethylazetidin-1-yl)acetamido)-2-methylpyridin-3-yl)-2-(1-(2-(methylamino)-2-oxoethyl)-1H-pyrazol-4-yl)pyrazolo[5,1-b]thiazole-7-carboxamide], the results for the IC50 in assay [1] and in assay [2] (read-out: PDGFR Cellular IC50) were 0.4 nM and 134 nM, respectively.
`Cc1ncc(NC(=O)CN2CC(C)(C)C2)cc1NC(=O)c1cnn2cc(-c3cnn(C4CCS(=O)(=O)CC4)c3)sc12` [Example 280, N-(5-(2-(3,3-dimethylazetidin-1-yl)acetamido)-2-methylpyridin-3-yl)-2-(1-(1,1-dioxidotetrahydro-2H-thiopyran-4-yl)-1H-pyrazol-4-yl)pyrazolo[5,1-b]thiazole-7-carboxamide]: the IC50 came out at 0.3 nM in assay [1] and 85.9 nM in assay [2] (read-out: PDGFR Cellular IC50).
On to `Cc1ncc(NC(=O)CN2CC(C)(C)C2)cc1NC(=O)c1cnn2cc(-c3cnn(CC(C)O)c3)sc12` (stereo not shown) [Example 281, N-(5-(2-(3,3-dimethylazetidin-1-yl)acetamido)-2-methylpyridin-3-yl)-2-(1-(2-hydroxypropyl)-1H-pyrazol-4-yl)pyrazolo[5,1-b]thiazole-7-carboxamide], for which the IC50 in assay [1] amounted to 0.4 nM; in assay [2] (read-out: PDGFR Cellular IC50), 10.9 nM.
The like results for `Cc1ncc(NC(=O)CN2CC(C)(C)C2)cc1NC(=O)c1cnn2cc(-c3ccsc3)sc12` [Example 282, N-(5-(2-(3,3-dimethylazetidin-1-yl)acetamido)-2-methylpyridin-3-yl)-2-(thiophen-3-yl)pyrazolo[5,1-b]thiazole-7-carboxamide] were, in that order, 0.1 nM and 0.9 nM.
Taken in the same sequence, the figures for `Cc1ncc(NC(=O)CN2CC(C)(C)C2)cc1NC(=O)c1cnn2cc(-c3ccoc3)sc12` [Example 283, N-(5-(2-(3,3-dimethylazetidin-1-yl)acetamido)-2-methylpyridin-3-yl)-2-(furan-3-yl)pyrazolo[5,1-b]thiazole-7-carboxamide] were 0.1 nM and 1.5 nM.
The like results for `Cc1ncc(NC(=O)CN2CC(C)(C)C2)cc1NC(=O)c1cnn2cc(-c3ccnc(N4CCOCC4)c3)sc12` [Example 284, N-(5-(2-(3,3-dimethylazetidin-1-yl)acetamido)-2-methylpyridin-3-yl)-2-(2-morpholinopyridin-4-yl)pyrazolo[5,1-b]thiazole-7-carboxamide] were, in that order, 0.2 nM and 2.8 nM.
Consider `Cc1ncc(NC(=O)CN2CC(C)(C)C2)cc1NC(=O)c1cnn2cc(-c3cc[nH]c3)sc12` [Example 285, N-(5-(2-(3,3-dimethylazetidin-1-yl)acetamido)-2-methylpyridin-3-yl)-2-(1H-pyrrol-3-yl)pyrazolo[5,1-b]thiazole-7-carboxamide], for which the IC50 in assay [1] turned out to be 0.1 nM; in assay [2] (read-out: PDGFR Cellular IC50), 1.2 nM.
The like results for `Cc1ncc(NC(=O)CN2CC(C)(C)C2)cc1NC(=O)c1cnn2cc(-c3cccc4c3cnn4C)sc12` [Example 286, N-(5-(2-(3,3-dimethylazetidin-1-yl)acetamido)-2-methylpyridin-3-yl)-2-(1-methyl-1H-indazol-4-yl)pyrazolo[5,1-b]thiazole-7-carboxamide] were, in that order, 0.1 nM and 1.4 nM.
In the case of `Cc1ncc(NC(=O)CN2CC(C)(C)C2)cc1NC(=O)c1cnn2cc(-c3c[nH]c4ccccc34)sc12` [Example 287, N-(5-(2-(3,3-dimethylazetidin-1-yl)acetamido)-2-methylpyridin-3-yl)-2-(1H-indol-3-yl)pyrazolo[5,1-b]thiazole-7-carboxamide], the IC50 in assay [1] is 0.1 nM; in assay [2] (read-out: PDGFR Cellular IC50), 1.8 nM.
The like results for `Cc1ncc(NC(=O)CN2CC(C)(C)C2)cc1NC(=O)c1cnn2cc(-c3cnc4[nH]ncc4c3)sc12` [Example 288, N-(5-(2-(3,3-dimethylazetidin-1-yl)acetamido)-2-methylpyridin-3-yl)-2-(1H-pyrazolo[3,4-b]pyridin-5-yl)pyrazolo[5,1-b]thiazole-7-carboxamide] were, in that order, 0.4 nM and 13.5 nM.
For the molecule `Cc1ncc(NC(=O)CN2CC(C)(C)C2)cc1NC(=O)c1cnn2cc(-c3cnn(-c4cccnc4)c3)sc12` [Example 289, N-(5-(2-(3,3-dimethylazetidin-1-yl)acetamido)-2-methylpyridin-3-yl)-2-(1-(pyridin-3-yl)-1H-pyrazol-4-yl)pyrazolo[5,1-b]thiazole-7-carboxamide], the IC50 in assay [1] was determined as 0.3 nM; in assay [2] (read-out: PDGFR Cellular IC50), 4.4 nM.
Regarding `Cc1ncc(NC(=O)CN2CC(C)(C)C2)cc1NC(=O)c1cnn2cc(-c3cnn(CCO)c3)sc12` [Example 290, N-(5-(2-(3,3-dimethylazetidin-1-yl)acetamido)-2-methylpyridin-3-yl)-2-(1-(2-hydroxyethyl)-1H-pyrazol-4-yl)pyrazolo[5,1-b]thiazole-7-carboxamide], the figures for the IC50 in assay [1] and in assay [2] (read-out: PDGFR Cellular IC50) were 0.4 nM and 19.5 nM, respectively.
